Experimental data: patent US20260248879A1, “METHODS OF USING A GCG/GLP1 CO-AGONIST FOR THERAPY” (ELI LILLY AND COMPANY, priority 2022, published 2026)
Read-outs that look alike come from different tables or passages of the source.

How the values were obtained:
patients with T2DM [1] = test: Phase 1 multiple-ascending dose study in T2DM (Example 1): body weight, waist circumference, body composition; format: in vivo, human
Source text: This study is a Phase 1, single-site, patient- and investigator-blinded, placebo controlled, randomized, non-crossover, multiple-ascending dose study with titration in each cohort in patients with T2DM to investigate the safety, tolerability, PK, and PD of the GLP-1/glucagon co-agonist peptide of SEQ ID NO:1 (Compound 1) administered as multiple SC injections QW for 12 weeks in Cohort 1 and 16 weeks in Cohort 2.
The first dosing regimen (also referred to as Cohort 1) is 12 weeks in duration and requires dose increments of 1.5 mg starting from 1.5 mg: • 1.5 mg QW Compound 1 for 4 weeks; • 3.0 mg QW Compound 1 for 4 weeks; and • 4.5 mg QW Compound 1 for 4 weeks.
The second dosing regimen (also referred to as Cohort 2) is 16 weeks in duration and requires dose increments of 2 mg starting from 2 mg: • 2 mg QW Compound 1 for 3 weeks; • 4 mg QW Compound 1 for 3 weeks; • 6 mg QW Compound 1 for 3 weeks; • 8 mg QW Compound 1 for 3 weeks; and • 10 mg QW Compound 1 for 4 weeks.
In respect of each dosing regimen, Compound 1 is administered SC into the abdomen of the patient after an overnight fast for at least 8 hours.
In respect of Cohort 1, body weight is measured at baseline and Days 1, 8, 15, 22, 29, 36, 43, 50, 57, 64, 71 and 78.
Wherever possible, the same scale is used for all weight measurements throughout the study and the scale is not moved or recalibrated. Subjects are weighed in light clothing at approximately the same time in the morning before dosing (on Day 1 only) and after an overnight fast and evacuation of bowel and the bladder, if possible. During the treatment period, weight is measured twice on each scheduled occasion, with the subject stepping off the scale between measurements. The average of the two weight measurements is recorded in the source document.
In respect of Cohort 1, waist circumference is measured at baseline and Days 1, 8, 15, 22, 29, 36, 43, 50, 57, 64, 71 and 78.
Waist circumference is measured at the midpoint between the lower margin of the least palpable rib and the top of the iliac crest. The patient stands with feet close together, arms at the side and body weight evenly distributed, and should wear little clothing. The patient should be relaxed, and the measurements should be taken at the end of a normal expiration. During screening, baseline, the treatment period, and at follow-up, waist circumference will be measured twice on each scheduled occasion. The average of the two measurements will be recorded in the source document.

patients with T2DM [2] = test: Example 1 study: appetite analysis (VAS); format: in vivo, human
Source text: To explore the effects of Compound 1 on meal intake and appetite sensation, subjects are asked to rate their appetite sensations using a 100-mm visual analogue scale
(VAS) for parameters of hunger, fullness, satiety, and prospective food consumption in the fasted state while inpatient as well as on scheduled outpatient visits. The VAS is a validated tool to assess appetite sensation parameters (Flint et al., Int J Obes Relat Metab Disord., 2000; 24(1):38-48). The VAS is presented as a 10-cm (100-mm) line, anchored by verbal descriptors, usually “extremely” and “not at all.” Subjects are required to rate their subjective sensations on four 100-mm scales combined with questions similar to the following: • “How hungry do you feel?” • “How satisfied do you feel?” • “How full do you feel?” • “How much do you think you could eat?”
Overall appetite score is calculated as the average of the 4 individual scores: satiety plus fullness plus (100−prospective food consumption) plus (100−hunger)/4 (van Can et al., Int J Obes (Lond). 2014; 38(6):784-793). The higher overall appetite score indicates less appetite, and the lower score indicates more appetite.
In respect of […], the satiety VAS (after fasting) is completed at baseline and Days 1, 29, 57, 78 and 80.
In respect of […], the satiety VAS (after fasting) is completed at baseline and Days 1, 22, 43, 64, 85, 106 and 108.
When the satiety VAS assessment coincides with the MMTT, it is performed pre-meal and 1 hour and 4 hours post MMTT.

[3] = human, in vivo
Source text: Up to two samples may be collected at additional time points during the study if warranted and agreed upon between both the investigator and sponsor.
All available PK data is utilized for model development.

patients with T2DM [4] = test: Example 1 study: gastric emptying (acetaminophen PK); format: in vivo, human
[5] = Cohort 1 (1.5-4.5 mg QW), D78-80, baseline 59.0
[6] = Cohort 1, escalated to 4.5 mg, Day 78
[7] = Cohort 2 (2-10 mg QW), D106-108, baseline 60.1
[8] = Cohort 2, Day 134 (after end of dosing)
[9] = Cohort 2, Day 162 (after end of dosing)
[10] = Cohort 2, escalated to 4.0 mg, Day 43
[11] = Cohort 2, escalated to 6.0 mg, Day 64
[12] = Cohort 2, escalated to 8.0 mg, Day 85
[13] = Cohort 2, escalated to 10 mg, Day 109
[14] = both treatment groups, over dosing periods

CC(C)C[C@H](NC(=O)[C@H](CC(C)C)NC(=O)[C@H](Cc1c[nH]c2ccccc12)NC(=O)[C@H](CCC(=O)O)NC(=O)[C@@H](NC(=O)[C@H](Cc1ccccc1)NC(=O)[C@H](CCC(=O)O)NC(=O)[C@H](CCCCNC(=O)COCCOCCNC(=O)COCCOCCNC(=O)CC[C@H](NC(=O)CCCCCCCCCCCCCCCCCCC(=O)O)C(=O)O)NC(=O)[C@H](C)NC(=O)[C@H](CCCCN)NC(=O)[C@H](CCCCN)NC(=O)[C@H](CCC(=O)O)NC(=O)[C@H](CC(=O)O)NC(=O)[C@H](CC(C)C)NC(=O)[C@H](Cc1ccc(O)cc1)NC(=O)[C@H](CCCCN)NC(=O)[C@H](CO)NC(=O)[C@H](Cc1ccc(O)cc1)NC(=O)[C@H](CC(=O)O)NC(=O)[C@H](CO)NC(=O)[C@@H](NC(=O)[C@H](Cc1ccccc1)NC(=O)[C@@H](NC(=O)CNC(=O)[C@H](CCC(N)=O)NC(=O)C(C)(C)NC(=O)[C@@H](N)Cc1c[nH]cn1)[C@@H](C)O)[C@@H](C)O)C(C)C)C(=O)N[C@@H](CCC(=O)O)C(=O)NCC(=O)NCC(=O)N1CCC[C@H]1C(=O)N[C@@H](CO)C(=O)N[C@@H](CO)C(=O)NCC(N)=O [Compound 1]
Lean body Mass (patients with T2DM [1]; [5]): 59.4 kg
Lean body mass (patients with T2DM [1]; [5]): 59.4 kg
% Lean body mass (patients with T2DM [1]; Cohort 1 (1.5-4.5 mg QW), D78-80, baseline 60.9%): 64.3%
Waist circumference (patients with T2DM [1]; Cohort 1 (1.5-4.5 mg QW), D78-80, baseline 110.4): 105.7 cm
mean change from baseline in body weight (patients with T2DM [1]; Cohort 1 (1.5-4.5 mg QW), Day 78): −2.88 kg at Day 78
body weight, mean percent change from baseline (patients with T2DM [1]; [6]): −3.03%
waist circumference, approximate reduction from baseline (patients with T2DM [1]; [6]): ~3%
mean body weight (patients with T2DM [1]; Cohort 1, escalated to 4.5 mg, Day 78, baseline 97.19): 94.0 kg
mean waist circumference (patients with T2DM [1]; Cohort 1, escalated to 4.5 mg, Day 78, baseline 108.66): 105.66 cm
Lean body Mass (patients with T2DM [1]; [7]): 56.4 kg
Lean body mass (patients with T2DM [1]; [7]): 56.4 kg
% Lean body mass (patients with T2DM [1]; Cohort 2 (2-10 mg QW), D106-108, baseline 63.0%): 67.8%
Waist circumference (patients with T2DM [1]; Cohort 2 (2-10 mg QW), D106-108, baseline 108.6): 96.7 cm
body weight decrease from baseline compared to placebo (patients with T2DM [1]; Cohort 2 (2-10 mg QW), Day 50 through Day 162): statistically significant decreases
mean change from baseline in body weight (patients with T2DM [1]; Cohort 2 (2-10 mg QW), Day 109): −10.73 kg at Day 109.
mean body weight (patients with T2DM [1]; Cohort 2, Day 134 (after end of 16 weeks dosing), baseline 94.9): 84.05 kg
body weight, mean percent change from baseline (patients with T2DM [1]; [8]): −11.14%
waist circumference, approximate reduction from baseline (patients with T2DM [1]; [8]): ~9%
mean waist circumference (patients with T2DM [1]; Cohort 2, Day 134 (after end of dosing), baseline 106.93): 97.59 cm
body weight, mean percent change from baseline (patients with T2DM [1]; [9]): −6.56%
waist circumference, approximate reduction from baseline (patients with T2DM [1]; [9]): ~4%
mean body weight (patients with T2DM [1]; Cohort 2, Day 162 (after end of dosing), baseline 94.9): 88.96 kg
mean waist circumference (patients with T2DM [1]; Cohort 2, Day 162 (after end of dosing), baseline 106.93): 102.79 cm
body weight, mean percent change from baseline (patients with T2DM [1]; [10]): −4.04%
waist circumference, approximate reduction from baseline (patients with T2DM [1]; [10]): ~3%
mean body weight (patients with T2DM [1]; Cohort 2, escalated to 4.0 mg, Day 43, baseline 94.9): 90.38 kg
mean waist circumference (patients with T2DM [1]; Cohort 2, escalated to 4.0 mg, Day 43, baseline 106.93): 103.38 cm
body weight, mean percent change from baseline (patients with T2DM [1]; [11]): −7.07%
waist circumference, approximate reduction from baseline (patients with T2DM [1]; [11]): ~5%
mean body weight (patients with T2DM [1]; Cohort 2, escalated to 6.0 mg, Day 64, baseline 94.9): 87.69 kg
mean waist circumference (patients with T2DM [1]; Cohort 2, escalated to 6.0 mg, Day 64, baseline 106.93): 101.31 cm
body weight, mean percent change from baseline (patients with T2DM [1]; [12]): −9.05%
waist circumference, approximate reduction from baseline (patients with T2DM [1]; [12]): ~8%
mean body weight (patients with T2DM [1]; Cohort 2, escalated to 8.0 mg, Day 85, baseline 94.9): 85.88 kg
mean waist circumference (patients with T2DM [1]; Cohort 2, escalated to 8.0 mg, Day 85, baseline 106.93): 98.58 cm
body weight, mean percent change from baseline (patients with T2DM [1]; [13]): −12.71%
waist circumference, approximate reduction from baseline (patients with T2DM [1]; [13]): ~10%
mean body weight (patients with T2DM [1]; Cohort 2, escalated to 10 mg, Day 109, baseline 94.9): 82.55 kg
mean waist circumference (patients with T2DM [1]; Cohort 2, escalated to 10 mg, Day 109, baseline 106.93): 96.56 cm
body weight reduction (patients with T2DM [1]; dose 10 mg or greater): greater than 12%
body weight reduction (patients with T2DM [1]; dose greater than 6 mg): greater than 9%
reduction in waist circumference (patients with T2DM [1]; dose greater than 6.0 mg): greater than 5%
overall appetite scores (patients with T2DM [2]; all treatment groups incl. placebo, 12-week or 16-week dosing, higher score = less appetite): generally increase from baseline
hunger scores (patients with T2DM [2]; both treatment groups, majority of time points): decrease from baseline
fullness scores (patients with T2DM [2]; [14]): increased from baseline
satiety scores (patients with T2DM [2]; [14]): decrease from baseline
VAS appetite assessments (patients with T2DM [2]; higher dose cohort (FIG. 8)): reduced hunger, increased satiety, decreased overall appetite
t1/2, geomean (range) ([3]; 4.5 mg): 209 (117 to 362) h
t1/2, geomean (range) ([3]; 10 mg): 213 (129 to 366) h
Apparent clearance, CL/F, population mean estimate ([3]; sc): 0.0311 L/h
acetaminophen Cmax, Change From Baseline, Mean (patients with T2DM [4]; Cohort 1, Day 107): 1487.25
acetaminophen tmax (patients with T2DM [4]; Cohort 1, Day 107): 1.456 h
acetaminophen tmax (patients with T2DM [4]; Cohort 2, Day 79): 3.302 h
acetaminophen tmax, Change From Baseline, Mean (patients with T2DM [4]; Cohort 2, Day 79): 0.333 h
